Results reported in patent US4386090A, “Nitrogen containing 2,3-dihydro naphthalenes, compositions and use” (Delalande S.A., priority 1980, dated 1983).
Structures can show the parent of a compound that is named as a salt.

Legend:
[1] = acute toxicity (LD 50); details: in vivo, ip
Description: To illustrate the invention, there are shown in table IV below, the results obtained in these two tests and the acute toxicity (LD 50) of some compounds of formula (I).

[2] = test system: mice; test: analgesic activity, phenylbenzoquinone test (E. SIEGMUND); format: in vivo; details: Mus musculus, ip, read-out: ED 50 analgesic property
Description: Soc. Exp. Biol. and Med. 95, 729, (1957).

[3] = test system: mice; test: antidepressive activity, antagonism to ptosis after intravenous injection of reserpine; format: in vivo; details: Mus musculus, ip, 1 h, i.p., ptosis observed an hour after i.v. reserpine 2 mg/kg, read-out: ED 50 antidepressive property
Description: GOURET and J. THOMAS in J. Pharmacol. (Paris) (1973), 4, 401.

SMILES | LD50 [1] | ED50 [2] | ED50 [3]
CN1CCN(CC2Cc3c(Cl)cccc3C(c3ccccc3)=N2)CC1 (centres unmarked) [compound 94] | 140 mg/kg | 22 mg/kg | –
COc1cccc(C2=NC(CCN(C)C)Cc3ccccc32)c1 (centres unmarked) [compound 29] | 78 mg/kg | 10 mg/kg | 6.8 mg/kg
CN1CCN(CCC2Cc3c(Cl)cccc3C(c3ccccc3)=N2)CC1 (centres unmarked) [compound 106] | 145 mg/kg | 12 mg/kg | –
CN1CCN(CC2Cc3ccccc3C(c3ccccc3)=N2)CC1 (centres unmarked) [compound 7] | 170 mg/kg | 6.2 mg/kg | 10 mg/kg
CN(C)CC1C=C(c2ccccc2)c2ccccc2C1 (centres unmarked) [Code Number 1, 3-Dimethylaminomethyl 1-phenyl 3,4-dihydro naphthalene, oxalate] | 62 mg/kg | 6 mg/kg | 10 mg/kg
CN(C)CC1Cc2ccccc2C(c2ccccc2)=N1 (centres unmarked) [compound 6] | 41 mg/kg | 5 mg/kg | 3.5 mg/kg
NCCC1Cc2ccccc2C(c2ccccc2)=N1 (centres unmarked) [compound 15] | 67 mg/kg | 10 mg/kg | 0.9 mg/kg
CN(C)CC1COc2ccccc2C(c2ccccc2Cl)=N1 (centres unmarked) [compound 42] | 70 mg/kg | 3.5 mg/kg | 7 mg/kg
CN(C)CCC1Cc2ccccc2C(c2ccccc2F)=N1 (centres unmarked) [compound 22] | 70 mg/kg | 6.2 mg/kg | 0.6 mg/kg
CN(C)CC1Cc2ccc(Cl)cc2C(c2ccccc2)=N1 (centres unmarked) [Code Number 11] | 37 mg/kg | 3 mg/kg | 0.8 mg/kg
CN(C)CCC1Cc2ccccc2C(c2cccnc2)=N1 (centres unmarked) [compound 108] | 90 mg/kg | 7.6 mg/kg | 12 mg/kg
CN(C)CCC1Cc2ccccc2C(c2cccc(Cl)c2)=N1 (centres unmarked) [compound 26] | 65 mg/kg | 7.6 mg/kg | 5.4 mg/kg
CN(C)CCC1Cc2ccccc2C(c2cccc(F)c2)=N1 (centres unmarked) [compound 23] | 55 mg/kg | 2 mg/kg | 2 mg/kg
CN(C)CCC1COc2ccccc2C(c2ccccc2)=N1 (centres unmarked) [compound 45] | 160 mg/kg | 16.5 mg/kg | 12 mg/kg
CNCCC1Cc2ccccc2C(c2ccccc2F)=N1 (centres unmarked) [compound 21] | 70 mg/kg | 10 mg/kg | 1.2 mg/kg
CN(C)CC1COc2ccccc2C(c2ccccc2)=N1 (centres unmarked) [compound 40] | 80 mg/kg | 3 mg/kg | –
CCN(CC)CC1Cc2ccc(C)cc2C(c2ccccc2)=N1 (centres unmarked) [compound 95] | 45 mg/kg | 10 mg/kg | –
CNCCC1Cc2ccccc2C(c2ccccc2)=N1 (centres unmarked) [compound 16] | 65 mg/kg | 10 mg/kg | 8.2 mg/kg
CN(C)CCC1Cc2ccccc2C(C2CCCCC2)=N1 (centres unmarked) [compound 37] | 82 mg/kg | 10 mg/kg | 10 mg/kg
CN(C)CCC1Cc2ccccc2C(c2ccccc2C(F)(F)F)=N1 (centres unmarked) [compound 103] | 70 mg/kg | – | 3.8 mg/kg
COc1cc2c(cc1OC)C(c1ccccc1)=NC(CCN(C)C)C2 (centres unmarked) [compound 105] | 165 mg/kg | 12 mg/kg | 30 mg/kg
Cc1ccc2c(c1)C(c1ccccc1)=NC(CN(C)C)C2 (centres unmarked) [compound 12] | 50 mg/kg | 5 mg/kg | 15 mg/kg
CN(C)CCC1C=C(c2ccccc2)c2ccccc2C1 (centres unmarked) [Code Number 2] | 110 mg/kg | 7.3 mg/kg | 1 mg/kg
CN(C)CCC1Cc2ccccc2C(c2cccc(C(F)(F)F)c2)=N1 (centres unmarked) [compound 104] | 62 mg/kg | 4.3 mg/kg | –
CN(C)CCC1Cc2c(Cl)cccc2C(c2ccccc2)=N1 (centres unmarked) [compound 18] | 70 mg/kg | 1 mg/kg | –
CN(C)CCC1Cc2ccccc2C(c2ccc(F)cc2)=N1 (centres unmarked) [compound 24] | 61 mg/kg | 8.4 mg/kg | 2.1 mg/kg
CN(C)CCC1Cc2ccc(Cl)cc2C(c2ccccc2)=N1 (centres unmarked) [compound 19] | 95 mg/kg | 4 mg/kg | 3.8 mg/kg
Cc1ccc(C2=NC(CCN(C)C)Cc3ccccc32)cc1 (centres unmarked) [compound 33] | 70 mg/kg | 8.8 mg/kg | 2.7 mg/kg
